Experiment: Corneal permeation experiment in Ussing chamber
Assay type: in vitro ADME
Details: pig cornea, 37° C., after 18 hours
Protocol: The corneal permeation experiment was conducted with reference to the contents of “Lee et. al, “Modulating the Transport Characteristics of Bruch's Membrane With Steroidal Glycosides and its Relevance to Age-Related Macular Degeneration (AMD). Invest. Ophthalmol. Vis. Sci. 2015, 56, 8403, 2015,” which is an already published paper. […] Basically, the drug is put into the donor chamber of the Ussing chamber, the corneal part of the pig eye is collected in a circular shape of 8 mm in size, and other tissues attached to the cornea were removed, and then fixed in place of the membrane, and the solution permeating the membrane was received in the receiving chamber, and at this time, it was placed in a constant temperature chamber in which the temperature at which diffusion occurs was adjusted to 37° C., which is close to human body temperature, and stored. After a certain amount of time passed, the diffusion properties of each sample could be identified by measuring the concentration of the solution in each donor chamber and receiving chamber. For the concentration, UV/VIS spectrum (Evolution201 UV/Vis; Thermo) was used, and the concentration was measured using a peak height at 420 nm.

CCN(CC)CCNC(=O)c1c(C)[nH]c(/C=C2\C(=O)Nc3ccc(F)cc32)c1C [Comparative Example 2, sunitinib-malate]
Drug in corneal tissue (μg, Mean ± SD): 65.7 ± 7.5 µg | Drug in receiver (μg, Mean ± SD): 8.8 ± 5.8 µg | Transport percentage* (%, Mean ± SD): 1.6 ± 1.1%
